Measurements from ChEMBL document CHEMBL4428075, “New antiproliferative 7-(4-(N-substituted carbamoylmethyl)piperazin-1-yl) derivatives of ciprofloxacin induce cell cycle arrest at G2/M phase” (Bioorg Med Chem, 2016).
The source made the active and inactive calls. The rule behind the calls is not given here.

Tests used:
WI-38 [1] = test: Downregulation of cyclinB1 expression in human WI38 cells at 5 to 25 uM after 24 hrs by Western blot analysis; type: ADME, cell-based; settings: wi-38, 24 h
EKVX = test: Antiproliferative activity against human EKVX cells at 10^-5 M after 48 hrs by SRB assay; type: functional; settings: read-out: GI
SK-MEL-2 = test: Antiproliferative activity against human SK-MEL-2 cells at 10^-5 M after 48 hrs by SRB assay; type: functional; settings: SK-MEL-2, 48 h, read-out: GI
OVCAR-4 = test: Antiproliferative activity against human OVCAR4 cells at 10^-5 M after 48 hrs by SRB assay; type: functional; settings: OVCAR-4, 48 h, read-out: GI
A549 [2] = test: Induction of cell cycle arrest in human A549 cells assessed as accumulation at G2/M phase at 25 uM after 24 hrs by FITC-labeled anti-BrdU antibody/7AAD staining based FACS calibur flow cytometric analysis (reference value: 12.61 %); type: functional
SF-539 = test: Antiproliferative activity against human SF539 cells at 10^-5 M after 48 hrs by SRB assay; type: functional; settings: SF-539, 48 h, read-out: GI
A549 [3] = test: Downregulation of cyclinB1 expression in human A549 cells after 24 hrs by Western blot analysis; type: functional, cell-based
MDA-MB-468 = test: Antiproliferative activity against human MDA-MB-468 cells at 10^-5 M after 48 hrs by SRB assay; type: functional; settings: MDA-MB-468, 48 h, read-out: GI
WI-38 [4] = test: Upregulation of p53 expression human WI38 cells at 5 to 25 uM after 24 hrs by Western blot analysis; type: ADME, cell-based; settings: wi-38, 24 h
ACHN = test: Antiproliferative activity against human ACHN cells at 10^-5 M after 48 hrs by SRB assay; type: functional; settings: read-out: GI
A549 [5] = test: Induction of p21 expression in human A549 cells at 25 uM after 24 hrs in presence of PFTalpha by Western blot analysis; type: functional, cell-based
A549 [6] = test: Induction of cell cycle arrest in human A549 cells assessed as accumulation at sub G1 phase at 15 uM after 24 hrs by FITC-labeled anti-BrdU antibody/7AAD staining based FACS calibur flow cytometric analysis (reference value: 0.82 %); type: functional
UO-31 = test: Antiproliferative activity against human UO31 cells at 10^-5 M after 48 hrs by SRB assay; type: functional; settings: UO-31, 48 h, read-out: GI
OVCAR-8 = test: Antiproliferative activity against human OVCAR8 cells at 10^-5 M after 48 hrs by SRB assay; type: functional; settings: OVCAR-8, 48 h, read-out: GI
A549 [7] = test: Antiproliferative activity against human A549 cells at 10^-5 M after 48 hrs by SRB assay; type: functional; settings: A549, 48 h, read-out: GI
WI-38 [8] = test: Downregulation of cdc2 expression in human WI38 cells at 5 to 25 uM after 24 hrs by Western blot analysis; type: ADME, cell-based; settings: wi-38, 24 h
OVCAR-5 = test: Antiproliferative activity against human OVCAR5 cells at 10^-5 M after 48 hrs by SRB assay; type: functional; settings: OVCAR-5, 48 h, read-out: GI
K562 = test: Antiproliferative activity against human K562 cells at 10^-5 M after 48 hrs by SRB assay; type: functional; settings: K562, 48 h, read-out: GI
A549 [9] = test: Induction of cell cycle arrest in human A549 cells assessed accumulation at G2/M phase at 25 uM after 24 hrs in presence of PFTalpha by FITC-labeled anti-BrdU antibody/7AAD staining based FACS calibur flow cytometric analysis (reference value: 63.9%); type: functional
HT-29 = test: Antiproliferative activity against human HT-29 cells at 10^-5 M after 48 hrs by SRB assay; type: functional; settings: HT-29, 48 h, read-out: GI
A549 [10] = test: Induction of cell cycle arrest in human A549 cells assessed as accumulation at G2/M phase at 5 uM after 24 hrs by FITC-labeled anti-BrdU antibody/7AAD staining based FACS calibur flow cytometric analysis (reference value: 12.61 %); type: functional
BT-549 = test: Antiproliferative activity against human BT549 cells at 10^-5 M after 48 hrs by SRB assay; type: functional; settings: BT-549, 48 h, read-out: GI
TK-10 = test: Antiproliferative activity against human TK10 cells at 10^-5 M after 48 hrs by SRB assay; type: functional; settings: TK-10, 48 h, read-out: GI
A549 [11] = test: Induction of cell cycle arrest in human A549 cells assessed as accumulation at G2/M phase at 15 uM after 24 hrs by FITC-labeled anti-BrdU antibody/7AAD staining based FACS calibur flow cytometric analysis (reference value: 12.61 %); type: functional
HOP-92 = test: Antiproliferative activity against human HOP92 cells at 10^-5 M after 48 hrs by SRB assay; type: functional; settings: HOP-92, 48 h, read-out: GI
A549 [12] = test: Induction of cell cycle arrest in human A549 cells assessed as accumulation at sub G1 phase at 25 uM after 24 hrs by FITC-labeled anti-BrdU antibody/7AAD staining based FACS calibur flow cytometric analysis (reference value: 0.82 %); type: functional
MCF7 = test: Antiproliferative activity against human MCF7 cells at 10^-5 M after 48 hrs by SRB assay; type: functional; settings: MCF7, 48 h, read-out: GI
SW-620 = test: Antiproliferative activity against human SW620 cells at 10^-5 M after 48 hrs by SRB assay; type: functional; settings: SW-620, 48 h, read-out: GI
A549 [13] = test: Induction of cell cycle arrest in human A549 cells assessed as accumulation at S phase at 10 uM after 24 hrs by FITC-labeled anti-BrdU antibody/7AAD staining based FACS calibur flow cytometric analysis (reference value: 20.9 %); type: functional
WI-38 [14] = test: Upregulation of p21 expression in human WI38 cells at 5 to 25 uM after 24 hrs by Western blot analysis; type: ADME, cell-based; settings: wi-38, 24 h
COLO 205 = test: Antiproliferative activity against human COLO205 cells at 10^-5 M after 48 hrs by SRB assay; type: functional; settings: COLO 205, 48 h, read-out: GI
A498 = test: Antiproliferative activity against human A498 cells at 10^-5 M after 48 hrs by SRB assay; type: functional; settings: A498, 48 h, read-out: GI
DU-145 = test: Antiproliferative activity against human DU145 cells at 10^-5 M after 48 hrs by SRB assay; type: functional; settings: DU-145, 48 h, read-out: GI
HL-60(TB) = test: Antiproliferative activity against human HL-60(TB) cells at 10^-5 M after 48 hrs by SRB assay; type: functional; settings: HL-60, 48 h, read-out: GI
A549 [15] = test: Induction of cell cycle arrest in human A549 cells assessed as accumulation at G1 phase at 25 uM after 24 hrs by FITC-labeled anti-BrdU antibody/7AAD staining based FACS calibur flow cytometric analysis (reference value: 65.9 %); type: functional
LOX IMVI = test: Antiproliferative activity against human LOXIMVI cells at 10^-5 M after 48 hrs by SRB assay; type: functional; settings: read-out: GI

SMILES	inhibition of growth at 10 µM (EKVX) [%]	inhibition of growth at 10 µM (SK-MEL-2) [%]	inhibition of growth at 10 µM (OVCAR-4) [%]	inhibition of growth at 10 µM (SF-539) [%]	inhibition of growth at 10 µM (MDA-MB-468) [%]	inhibition of growth at 10 µM (ACHN) [%]	inhibition of growth at 10 µM (UO-31) [%]	inhibition of growth at 10 µM (OVCAR-8) [%]	inhibition of growth at 10 µM (A549 [7]) [%]	inhibition of growth at 10 µM (OVCAR-5) [%]	inhibition of growth at 10 µM (K562) [%]	inhibition of growth at 10 µM (HT-29) [%]	inhibition of growth at 10 µM (BT-549) [%]	inhibition of growth at 10 µM (HOP-92) [%]	inhibition of growth at 10 µM (MCF7) [%]	inhibition of growth at 10 µM (SW-620) [%]	inhibition of growth at 10 µM (COLO 205) [%]	inhibition of growth at 10 µM (A498) [%]	inhibition of growth at 10 µM (DU-145) [%]	inhibition of growth at 10 µM (HL-60(TB)) [%]	also measured
O=C(CN1CCN(c2cc3c(cc2F)c(=O)c(C(=O)O)cn3C2CC2)CC1)Nc1ccc(Cl)cc1	6.62	5.16	14.7	13.1	14	46.8	92.8	21.2	30.8	0	31.9	42.1	44.2	21.1	5.73	0	0.11	31.4	0.9	10.5	Activity (WI-38 [1]): Non-Toxic; Activity (A549 [2]): 64%; Activity (A549 [3]): Dose-dependent effect; Activity (WI-38 [4]): Non-Toxic; Activity (A549 [5]): inactive; Activity (A549 [6]): 3.28%; Activity (WI-38 [8]): Non-Toxic; Activity (A549 [9]): 23.7%; Activity (A549 [10]): 13.21%; inhibition of growth at 10 µM (TK-10): 13.9%; Activity (A549 [11]): 32.6%; Activity (A549 [12]): 2.6%; Activity (A549 [13]): 16.7%; Activity (WI-38 [14]): Non-Toxic; Activity (A549 [15]): 24.8%; inhibition of growth at 10 µM (LOX IMVI): 38.9%
COc1ccc(NC(=O)CN2CCN(c3cc4c(cc3F)c(=O)c(C(=O)O)cn4C3CC3)CC2)cc1	0	0	0	5.31	6.39	0	17.8	6	7.18	0	5.67	0.04	5.78	5.92	0	0	2.63	37.6	0	0	inhibition of growth at 10 µM (LOX IMVI): 39%
COc1cc(NC(=O)CN2CCN(c3cc4c(cc3F)c(=O)c(C(=O)O)cn4C3CC3)CC2)cc(OC)c1OC	0	7.36	0	0	0	0	0	0	0	0	2.65	1.21	7.42	18.7	0	0	0	0	0	8.4	inhibition of growth at 10 µM (TK-10): 10.5%; inhibition of growth at 10 µM (LOX IMVI): 16.1%
